Assay results as given in patent US12502386B2, “Nitrogen-containing heterocyclic compound and use thereof” (SHANGHAI SHIJIANG BIOTECHNOLOGY CO., LTD, priority 2022, dated 2025).
Like-named read-outs stand apart in the source and are kept apart here.

Assays:
Format in all cases: cell-based, human
Con-NCI-H82 cell = experiment: CellTiter-Glo cell viability, Con-NCI-H82 cell (empty-vector control); details: intracellular ATP, read-out: inhibitory effect on Con-NCI-H82 (IC50)
sh-DNMT1 NCI-H82 cell = experiment: CellTiter-Glo cell viability, sh-DNMT1 NCI-H82 cell (DNMT1 knocked down); details: intracellular ATP, read-out: inhibitory effect on sh-DNMT1 NCI-H82 (IC50)
ov-NNMT NCI-H82 cell = experiment: CellTiter-Glo cell viability, ov-NNMT NCI-H82 cell (NNMT overexpressed); details: intracellular ATP, read-out: inhibitory effect on OV-NNMT NCI-H82 (IC50)
[1] = Homo sapiens, NCI-H82, NCI-H82 transfected with empty virus vector (control)
[2] = Homo sapiens, NCI-H82, NCI-H82 with DNMT1 knocked down by shRNA
[3] = Homo sapiens, NCI-H82, NCI-H82 overexpressing NNMT protein

| Compound | IC50 (Con-NCI-H82 cell; [1]) | IC50 (sh-DNMT1 NCI-H82 cell; [2]) | IC50 (ov-NNMT NCI-H82 cell; [3]) | IC50 (Con-NCI-H82 cell; NCI-H82 transfected with empty virus vector (control)) | IC50 (sh-DNMT1 NCI-H82 cell; NCI-H82 with DNMT1 knocked down by shRNA) | IC50 (ov-NNMT NCI-H82 cell; NCI-H82 overexpressing NNMT protein) |
| --- | --- | --- | --- | --- | --- | --- |
| COc1ccc2c(c1OC)C(c1ccccc1)N1CCc3cc4c(cc3C1=C2)OCO4 (stereo not drawn) [AB36467] | 3.92 µM | 13.1 µM | 9.32 µM | – | – | – |
| COc1ccc2c(c1OC)C(C1CCCC1)N1CCc3cc4c(cc3C1=C2)OCO4 (stereo not drawn) [AB36497] | – | – | – | 19.9 µM | 17 µM | 18.3 µM |
| COc1ccc2c(c1OCCCF)C(C)N1CCc3cc4c(cc3C1=C2)OCO4 (stereo not drawn) [AB35485] | 4.55 µM | 16.8 µM | 12.3 µM | – | – | – |
| CCCCCC1=C2c3cc4c(cc3CCN2C(C2CCCC2)c2c1ccc(OC)c2OC)OCO4 (stereo not drawn) [AB35522] | 1.36 µM | 5.64 µM | 3.68 µM | – | – | – |
| CC1=C2c3cc4c(cc3CCN2C(C(Cl)(Cl)Cl)c2c1ccc1c2OCO1)OCO4 (stereo not drawn) [AB36442] | 15 µM | 14.1 µM | 13.3 µM | – | – | – |
| [2H]C1c2c(ccc(OC)c2OC)C=C2c3cc4c(cc3CC([2H])([2H])N21)OCO4 (stereo not drawn) [AB36477] | 1.22 µM | 8.82 µM | 5.68 µM | – | – | – |
| COc1ccc2c(c1N1CCN(C)CC1)C(C(Cl)(Cl)Cl)N1CCc3cc4c(cc3C1=C2)OCO4 (stereo not drawn) [AB35518] | 3.52 µM | 13.3 µM | 10.1 µM | – | – | – |
| COc1ccc2c(c1OCCN1CCCCC1)C(C(Cl)(Cl)Cl)N1CCc3cc4c(cc3C1=C2)OCO4 (stereo not drawn) [AB35420] | 4.99 µM | 18.2 µM | 12.5 µM | – | – | – |
| CCCCCCC1=C2c3cc4c(cc3CCN2C(C(Cl)(Cl)Cl)c2c1ccc(OC)c2OC)OCO4 (stereo not drawn) [AB35508] | 0.74 µM | 2.98 µM | 3.12 µM | – | – | – |
| COc1ccc2c(c1OCCCCCCBr)C(C)N1CCc3cc4c(cc3C1=C2)OCO4 (stereo not drawn) [AB31897] | 1.43 µM | 4.96 µM | 5.32 µM | – | – | – |
| CCCCN1CCN(c2c(OC)ccc3c2C(C(Cl)(Cl)Cl)N2CCc4cc5c(cc4C2=C3)OCO5)CC1 (stereo not drawn) [AB35445] | 5.55 µM | 16.4 µM | 13.4 µM | – | – | – |
| COc1ccc2cc3n(c(=O)c2c1OC)CCc1cc2c(cc1-3)OCO2 [AB36496] | 12.9 µM | 12.6 µM | 10.1 µM | – | – | – |
| CCCC1=C2c3cc4c(cc3CCN2C(C2CCCC2)c2c1ccc1c2OCO1)OCO4 (stereo not drawn) [AB36432] | 1.26 µM | 4.46 µM | 3.68 µM | – | – | – |
| COc1ccc2c(c1OC/C=C(\C)CCC=C(C)C)C(C)N1CCc3cc4c(cc3C1=C2)OCO4 (stereo not drawn) [AB35402] | 0.88 µM | 3.45 µM | 2.43 µM | – | – | – |
| COc1ccc2c(c1OCCCBr)C(C(Cl)(Cl)Cl)N1CCc3cc4c(cc3C1=C2)OCO4 (stereo not drawn) [AB35466] | 1.01 µM | 4.48 µM | 3.56 µM | – | – | – |
| COc1ccc2c(c1N1CCN(C)CC1)C(C1CCCC1)N1CCc3cc4c(cc3C1=C2)OCO4 (stereo not drawn) [AB35519] | 2.19 µM | 4.68 µM | 5.68 µM | – | – | – |
| COc1ccc2c(c1OC)C(n1cccc1)N1CCc3cc4c(cc3C1=C2)OCO4 (stereo not drawn) [AB36520] | 2.56 µM | 2.62 µM | 2.42 µM | – | – | – |
| CCCCCCC1c2c(ccc(OC)c2OC)C=C2c3cc4c(cc3CCN21)OCCO4 (stereo not drawn) [AB31880] | 0.99 µM | 3.86 µM | 3.32 µM | – | – | – |
| COc1ccc2c(c1OC)C(C)N1CCc3cc4c(cc3C1=C2CCCCc1ccccc1)OCO4 (stereo not drawn) [AB35468] | 0.82 µM | 4.32 µM | 3.12 µM | – | – | – |
| CCC(CC)COc1c(OC)ccc2c1C(C(Cl)(Cl)Cl)N1CCc3cc4c(cc3C1=C2)OCO4 (stereo not drawn) [AB35521] | 0.61 µM | 3.14 µM | 2.32 µM | – | – | – |
| CC1c2c(ccc3c2OCO3)C=C2c3cc4c(cc3CCN21)OCO4 (stereo not drawn) [AB35413] | 5.48 µM | 20.3 µM | 14.2 µM | – | – | – |
| COc1ccc2c(c1OC)C(CC(C)=O)N1CCc3cc4c(cc3C1=C2)OCO4 (stereo not drawn) [AB36472] | 4.28 µM | 4.11 µM | 4.32 µM | – | – | – |
| [2H]C([2H])([2H])Oc1c(OC)ccc2c1C([2H])(C1CCCC1)N1CCc3cc4c(cc3C1=C2)OCO4 (stereo not drawn) [AB36509] | 0.51 µM | 2.58 µM | 1.68 µM | – | – | – |
| COc1ccc2c(c1OCCCCOc1ccccc1)C(C)N1CCc3cc4c(cc3C1=C2)OCO4 (stereo not drawn) [AB31881] | 2.01 µM | 3.98 µM | 4.04 µM | – | – | – |
